Source: ChEMBL document CHEMBL1201862, “PubChem BioAssay data set” (2004)
“And” between values parts separate entries of the source, which are not always exact repeats. Identical values can stand only once.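 Values below derive from 48-hour exposures of cells grown in 96-well plates, with endpoints linearly interpolated between the two concentrations bracketing the appropriate inhibition level. GI50 = concentration required for 50% inhibition of growth.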 The source made the active and inactive calls. No stated cut-off is given here; in the data, active = GI50 up to about 1.1 µM and inactive = higher. Non-standard residues stand in square brackets, D forms with d. Residues, ends and D or L forms follow the SMILES beside them. ξ: configuration not given here. *: point of attachment. Benzoyl(4-OMe) = COc1ccc(C(=O)*)cc1; NMeF = CN[C@@H](Cc1ccccc1)C(=O)O; NMeN = CN[C@@H](CC(N)=O)C(=O)O; 2Thi = N[CH](Cc1cccs1)C(=O)O; NMeV = CN[C@H](C(=O)O)C(C)C; ξNMeV = CNC(C(=O)O)C(C)C; Boc = CC(C)(C)OC(=O)*; ξNMeA = CNC(C)C(=O)O; ξV = CC(C)C(N)C(=O)O

Legend:
Test in all cases: growth of human tumour cells (NCI), 48 h
[1] = test system: BT-549
[2] = test system: T47D
[3] = test system: XF498
[4] = test system: KM-20L2
[5] = test system: DMS-114
[6] = test system: DLD-1
[7] = test system: M19-MEL
[8] = test system: HOP-18

SMILES | GI50 [1] | GI50 [2] | other results
NS(=O)(=O)c1ccc(Nc2c3ccccc3nc3c(C(=O)NC(CO)(CO)CO)cccc23)cc1 | 0.126 µM (active) | 0.0815 µM (active) | –
CC(C)(C)c1cc(C(=O)C2Cc3ccccc3C(=O)O2)cc(C(C)(C)C)c1O (centres undefined) | 10.5 µM (inactive) | 16.5 µM (inactive) | –
N#Cc1cc(-c2nc3cc(F)ccc3s2)ccc1N | 2.3 µM (inactive) | < 0.012 µM (active) | –
CCC(C)C(NC(=O)C(Cc1cccs1)NC(=O)C(CC(C)C)NC(=O)C(CC(C)C)NC(=O)C(CCCCN)NC(=O)C(CCCNC(=N)N)NC(=O)c1ccc(OC)cc1)C(=O)NC(CC(C)C)C(N)=O (centres undefined) ({Benzoyl(4-OMe)}-RKLL[2Thi]IL-NH2; configuration not given here) | > 100 µM (inactive) | > 100 µM (inactive) | –
COc1cc(COC(=O)N2CC=CC2C(=O)O)c([N+](=O)[O-])cc1OC (centres undefined) | > 100 µM (inactive) | > 100 µM (inactive) | –
COC1OC(C)C(NC(=O)OCC(Cl)(Cl)Cl)C2OC(C)(C)OC12 (centres undefined) | > 100 µM (inactive) | > 100 µM (inactive) | –
CCCNC(=O)Nc1ccc2c(c1)Cc1cc(N(CCCl)CCCl)ccc1-2 | 22 µM (inactive) | – | –
CSc1nc(Nc2ccccc2Cl)c2c(N)nn(C)c2n1 | > 100 µM (inactive) | 18.7 µM (inactive) | –
Cc1[nH]c(-c2ccccc2)c(-c2ccc(Cl)cc2)c1C(=O)ONC(=O)c1ccccc1 | 2.56 µM (inactive) | – | –
Cn1[nH]nn/c1=N\N=C\c1ccccc1 | – | > 10 µM (inactive) | –
C[C@H]1[C@H](C)CC[C@]2(C(=O)OC3OC(CO)C(O)C(O)C3O)CC[C@]3(C)C(=CC[C@@H]4[C@@]5(C)C[C@H]6OC(=O)c7cc(O)c(O)c(O)c7-c7c(cc(O)c(O)c7O)C(=O)O[C@@H]6C(CO)(CO)[C@@H]5CC[C@]43C)[C@H]12 (some centres undefined) | > 100 µM (inactive) | > 74.8 µM (inactive) | –
COC(=O)C(C)N(C)C(=O)[C@H](CC(N)=O)N(C)C(=O)[C@@H]1CCCN1C(=O)[C@H](C(C)C)N(C)C(=O)C(C(C)C)N(C)C(=O)[C@H](Cc1ccccc1)N(C)C(=O)C(NC(=O)OC(C)(C)C)C(C)C (some centres undefined) (Boc-[ξV][NMeF][ξNMeV][NMeV]P[NMeN][ξNMeA]-OMe) | 12.1 µM (inactive) | 19.5 µM (inactive) | GI50 [3]: 15.4 µM (inactive); GI50 [4]: 33 µM (inactive); GI50 [5]: 4.65 µM (inactive); GI50 [6]: 17.8 µM (inactive)
C=C(/C=C/C=C(\CO)CCC=C(C)C)[C@H]1CCC2([C@H](CCCO)/C(=C(/C)C=O)CC[C@]2(C)O)[C@H]1O (some centres undefined) | – | – | GI50 [7]: > 100 µM (inactive); GI50 [3]: > 100 µM (inactive); GI50 [4]: > 100 µM (inactive); GI50 [8]: 40.9 µM (inactive); GI50 [5]: > 100 µM (inactive); GI50 [6]: > 100 µM (inactive)
C[C@]12CCC(=O)C=C1CC[C@@H]1C2CC[C@]2(C)c3nn(-c4ccccc4)nc3CC12 (some centres undefined) | – | – | GI50 [7]: > 100 µM (inactive); GI50 [3]: > 100 µM (inactive); GI50 [4]: > 100 µM (inactive); GI50 [5]: > 100 µM (inactive); GI50 [6]: > 100 µM (inactive)
COC(=O)[C@@H]1CN(C(C)=O)C(=O)N1 | – | 43.9 µM (inactive) | –
CS(=O)(=O)O[C@H]1CN2C[C@@H](O)[C@@H](O)[C@H]2[C@H]1CO.[B] | > 100 µM (inactive) | > 100 µM (inactive) | –
c1ccc2c(c1)CC1COc3ccccc3C1O2 (centres undefined) | 70.3 µM (inactive) | 51.4 µM (inactive) | –

SMILES | GI50 [1] | GI50 [2] | other results
N#Cc1c(-c2ccccc2)c(C#N)c(=S)n(C2OCC(O)C(O)C2O)c1N (centres undefined) | > 100 µM (inactive) | 75.9 µM (inactive) and 77.4 µM (inactive) | –
N#CC1=C(Cl)NC(Cl)=C(C#N)C1c1c(Cl)cccc1Cl | – | – | GI50 [3]: 13.9 µM (inactive); GI50 [4]: 45.8 µM (inactive); GI50 [8]: 30.1 µM (inactive); GI50 [5]: 14.2 µM (inactive); GI50 [6]: 21.4 µM (inactive)
O=C(O)C1CC(O)CN1 (centres undefined) | > 100 µM (inactive) | > 100 µM (inactive) | –
O=C(NCCCl)NCc1ccccc1 | – | > 100 µM (inactive) | –
CCCCC(=C=C1CCCCC1O)C1CCCN1C(=O)OC(C)(C)C (centres undefined) | 19.3 µM (inactive) | 13.2 µM (inactive) | –
O=C1C(/C=N/CCc2c[nH]c3ccccc23)C(C(F)(F)F)=NN1c1nc2ccccc2s1 (centres undefined) | 25.3 µM (inactive) | 0.664 µM (active) | –
CC(C)CNc1nc(N)nc(O)c1NC=O | > 100 µM (inactive) | > 100 µM (inactive) | –
CC(=O)NC(Cc1c[nH]cn1)C(=O)N1CCCC1C(N)=O (centres undefined) | > 100 µM (inactive) | > 100 µM (inactive) | –
Nc1nc(NNc2cccc(F)c2)cc(=O)[nH]1 | 77.1 µM (inactive) | – | –
O=c1c2cc(S(=O)(=O)Nc3ccc(Cl)cc3Cl)ccc2ncn1NS(=O)(=O)c1cccc2ccccc12 | 16.5 µM (inactive) | – | –
CC(C)(C)c1cc(/C=C/C(=O)CC(=O)/C=C/c2cc(C(C)(C)C)c(O)c(C(C)(C)C)c2)cc(C(C)(C)C)c1O | > 50 µM (inactive) | – | –
Cc1ccccc1NC(=O)C(=O)CC(=O)c1c(C)[n+]([O-])c2ccccc2[n+]1[O-] | – | – | GI50 [7]: > 100 µM (inactive); GI50 [4]: > 100 µM (inactive); GI50 [8]: > 100 µM (inactive); GI50 [5]: > 100 µM (inactive); GI50 [6]: > 100 µM (inactive)
CN(C)/C=N\c1nncc2[nH]cnc12 | > 100 µM (inactive) | > 100 µM (inactive) | –
CCCc1cc(=O)oc2c3c(c4c(c12)OC(C)(C)C=C4)O[C@@H](C)[C@H](C)C3=O | 13.7 µM (inactive) | – | –
O=C(NNC(=O)c1ccccc1O)c1cccc(Br)c1 | > 100 µM (inactive) | > 51.6 µM (inactive) | –
NC(=O)Nc1c(Cl)cc(S(N)(=O)=O)cc1Cl | > 100 µM (inactive) | – | –
C#CC1=CC(=O)C(OC)=CC1=O | – | 23 µM (inactive) | –
